Patent publication US11911442B2, “Use of soluble pro(renin) receptor to treat metabolic disorders and related conditions” (priority 2017, dated 2024)

What was measured:
AQP2 = AQP2 expression in primary rat IMCD cells (quantitative RT-PCR, immunoblotting); type: cell-based; conditions: inhibitor 10 μM pretreatment 1 h, then 10 nM sPRR-His 24 h
Wnt/β-catenin pathway = experiment: Acute and chronic responses to AVP (cAMP, AQP2) in primary rat IMCD cells; type: cell-based; conditions: XAV pretreatment 1 h
Experimental: FIGS. 5A-5F show a distinct role of the Wnt/β-catenin pathway in the acute and chronic responses to AVP in primary rat IMCD cells. The IMCD cells were pretreated for 1 h with XAV and were treated for 30 min or 24 h with 10 nM AVP. (A) At 30 min of AVP treatment, the medium was assayed for cAMP using ELISA (n=6 per group). (B and C) Membrane fraction (n=6 per group) (B) and cytosolic fraction (n=6 per group) (C) were subjected to immunoblotting analysis of AQP2. (D-F) At 24 h, medium cAMP was determined (n=6 per group) (D), whole-cell lysates were subjected to immunoblotting analysis of AQP2 (n=6 per group) (E), and total RNA was subjected to quantitative RT-PCR analysis of AQP2 mRNA (n=4 per group) (F). Data are shown as mean±SE; *P<0.05 vs. control; #P<0.05 vs. AVP alone.
For sPRR signaling studies, primary IMCD cells were prepared from 4-wk-old SD rats as previously described (35). The cells were grown in Transwell plates (catalog no. 29442-074; VWR International) with DMEM/F-12 medium containing 10% (vol/vol) FBS, 0.5 μM 8-Br-cAMP, 130 mM NaCl, and 80 mM urea. […] At the end of the experiments, the medium was collected for biochemical assays.
The membrane and cytosolic fractions of proteins were extracted using a kit according to the manufacturer's instructions (catalog no. BSP002; Bio Basic Inc.).

Sprague-Dawley (SD) rats = experiment: Water balance and renal AQP2 in SD rats, basal and water deprivation; type: in vivo, rat
Experimental: FIGS. 6A-6H show a role of the Wnt/β-catenin pathway in urine-concentrating capability in rats. SD Rats were administered vehicle, OMP, or XAV and were placed in metabolic cages for assessment of the state of water metabolism at basal condition (A-C) or after 24-h WD (D-H) (n=5 rats per group). At basal the condition, water intake (A), urine volume (B), and urine osmolality (C) were determined. (D-F) During 24-h WD, urine volume (D), urine osmolality (E), and body-weight (BW) changes (F) were monitored. (G and H) At the end of the experiment plasma osmolality (G) and Hct (H) were measured. *P<0.05 vs. control; #P<0.05 vs. WD alone.
FIGS. 7A-7F show an in vivo role of the Wnt/β-catenin pathway in the regulation of renal AQP2 expression during antidiuresis in rats. (A and B) To assess renal β-catenin activation by WD, the nuclear fraction of renal cortex (n=4 rats per group) (A) and the inner medulla (n=4 rats per group) (B) from control and dehydrated rats were subjected to immunoblotting analysis of β-catenin. (C-F) Immunoblotting analysis of AQP2 expression was performed on the renal cortex and the inner medulla of rats treated with vehicle or WD with (C) or without (D) OMP or with (E) or without (F) XAV (n=5 rats per group). Data are shown as mean±SE; *P<0.05 vs. control; #P<0.05 vs. WD. CO, cortex; IM, inner medulla.
To probe the in vivo role of β-catenin signaling in fluid homeostasis, OMP and XAV were administered to Sprague-Dawley (SD) rats under basal conditions and during […] water deprivation (WD) and evaluated their impact on water balance.
Renal tissues were lysed and subsequently sonicated. Protein concentrations were determined using Coomassie reagent. Forty micrograms of protein from each sample were denatured in boiling water, separated by SDS/PAGE, and transferred onto nitrocellulose membranes. Blots were blocked 1 h with 5% nonfat dry milk in Tris-buffered saline (TBS), followed by overnight incubation with primary antibody. After washing with TBS, blots were incubated with goat anti-rabbit/mouse HRP-conjugated secondary antibody and visualized using ECL. The blots were quantitated by using Image-Pro Plus (Media Cybernetics). The primary antibodies were goat anti-AQP2 antibody, rabbit anti-PRR-N antibody, and rabbit anti-FZD8 antibody (all from Santa Cruz), rabbit anti-V2R antibody (Abcam), and goat anti-β-catenin antibody (Novus).

mouse model of NDI = experiment: Mouse model of NDI induced with V2R antagonist OPC; type: in vivo
From the text: Mice were placed in metabolic cages for assessment of daily water intake and urine output. (A) daily water intake (n=4 mice per group). (B) Daily urine output (n=4 mice per group). (C) Urine osmolality (n=4 mice per group). (D) Urinary sPRR excretion (n=4 mice per group). Data are shown as mean±SE. In A-C, #P<0.05 vs. OPC alone; in D*P<0.05 vs. control. (E) Schematic illustration of the mechanism of action of sPRR. In the lumen of the distal nephron, sPRR binds FZD8 in a receptor complex on the apical membrane of principal cells, resulting in the activation of β-catenin, which promotes cAMP accumulation, ultimately leading to increased AQP2 transcription and enhanced urine concentration.
In support of this notion, it has been shown that exposure of the CD cells to AVP stimulates the release of sPRR. FIG. 8E provides a schematic illustration of the mechanism of action of sPRR in the CD principal cells.
Urinary or medium sPRR was determined using a commercially sPRR enzyme immunoassay (EIA) kit (catalog no. JP27782; Immuno-Biological Laboratories) according to the manufacturer's instructions.

Row | SMILES | sPRR-His-induced AQP2 protein expression, effect of inhibitor (AQP2) | rapid rise of cAMP and redistribution of AQP2 from the cytosol to the membrane in response to AVP (Wnt/β-catenin pathway; 30-min exposure to 10 nM AVP) | AVP-induced increases in cAMP level, total protein abundance and mRNA expression of AQP2 (Wnt/β-catenin pathway; 24 h 10 nM AVP) | WD-induced increase of AQP2 protein abundance in renal cortex and inner medulla (Sprague-Dawley (SD) rats; WD, immunoblotting) | water balance (urine volume, water intake, urine osmolality) (Sprague-Dawley (SD) rats; basal conditions, administration over 48 h) | plasma osmolality and hematocrit (Hct) (Sprague-Dawley (SD) rats; during 48-h WD) | urine osmolality (Sprague-Dawley (SD) rats; during 48-h WD) | urine volume (Sprague-Dawley (SD) rats; during 48-h WD) | weight loss (Sprague-Dawley (SD) rats; during 48-h WD) | water intake, urine output, urine osmolality (mouse model of NDI; C57/BL6 mice, OPC via gavage 30 mg·kg^−1·d^−1 for 3 d) | urinary sPRR excretion (mouse model of NDI; OPC-treated mice)
1 | Oc1nc(-c2ccc(C(F)(F)F)cc2)nc2c1CSCC2 [XAV939] | blunted | unaffected | effectively attenuated | attenuated significantly | polyuria, polydipsia, and hypoosmotic urine | greater increases | decreased | increased | exaggerated |  | 
2 | Cc1ccccc1C(=O)Nc1ccc(C(=O)N2CCCC(N(C)C)c3ccccc32)cc1 (centres unmarked) [OPC] |  |  |  |  |  |  |  |  |  | polydipsia, polyuria, and hypoosmotic urine | suppressed significantly
